Usually half-life stands for how long it takes for the measured level to halve. A high value points to slow decline.

Consider 1 compound from ChEMBL document CHEMBL3046828, “Disappearance of pyrimethanil residues on tomato plants” (J Agric Food Chem, 2002).

Data set [1] is described as follows: Half life in Solanum lycopersicum (tomato) plant leaves at 300 g/L treated under green house condition. It counts as ADME, Leaf.
Data set [2] deals with Leaf. The experiment in a line: Drug degradation in Solanum lycopersicum (tomato) plant leaves at 300 g/L treated under green house condition measured after 8 days relative to initial level. It counts as ADME. The settings on record: 192 h.
For data set [3], the system named is Fruit. The data set is described as follows: Residue remaining in Solanum lycopersicum (tomato) plant fruits at 300 g/L treated under green house condition measured after 3 days relative to initial level. The settings on record: 72 h.
Data set [4] deals with Leaf. The data set is described as follows: Drug recovery in Solanum lycopersicum (tomato) plant leaves at 1.83 ug/cm'2 of spiking level. In kind it is ADME.
Data set [5] relates to Leaf. The experiment in a line: Drug degradation in Solanum lycopersicum (tomato) plant leaves at 300 g/L treated under green house condition measured after 10 days relative to initial level. In kind it is ADME. The settings on record: 240 h.
Data set [6] relates to Leaf. The data set is described as follows: Drug degradation in Solanum lycopersicum (tomato) plant leaves at 300 g/L treated under green house condition measured after 15 days relative to initial level. It counts as ADME. The settings on record: 360 h.
The subject of data set [7] is Leaf. The data set is described as follows: Drug degradation in Solanum lycopersicum (tomato) plant leaves at 300 g/L treated under green house condition measured after 6 days relative to initial level. In kind it is ADME. The conditions noted are these: 144 h.
In data set [8] the test system is Fruit. The experiment in a line: Drug degradation in Solanum lycopersicum (tomato) plant fruits at 300 g/L treated under green house condition measured after 10 days relative to initial level. It counts as ADME. The conditions noted are these: 240 h.
Data set [9] concerns Fruit. The experiment in a line: Drug degradation in Solanum lycopersicum (tomato) plant fruits at 300 g/L treated under green house condition measured after 1 day relative to initial level. The settings on record: 24 h. It counts as ADME.
Data set [10] has as its system Leaf. The experiment in a line: Drug degradation in Solanum lycopersicum (tomato) plant leaves at 300 g/L treated under green house condition measured after 5 days relative to initial level. In kind it is ADME. The conditions noted are these: 120 h.
Data set [11] concerns Leaf. The experiment in a line: Drug degradation in Solanum lycopersicum (tomato) plant leaves at 300 g/L treated under green house condition measured after 1 day relative to initial level. In kind it is ADME. The settings on record: 24 h.
The nature of data set [12]: Half life in Solanum lycopersicum (tomato) plant fruits at 300 g/L treated under green house condition. It counts as ADME, Fruit.
For data set [13], the system named is Leaf. The data set is described as follows: Drug residue remaining in Solanum lycopersicum (tomato) plant leaves at 300 g/L treated under green house condition measured after 22 days relative to initial level. The conditions noted are these: 528 h.
Data set [14] concerns Leaf. The data set is described as follows: Drug degradation in Solanum lycopersicum (tomato) plant leaves at 300 g/L treated under green house condition measured after 3 days relative to initial level. It counts as ADME. The settings on record: 72 h.
The subject of data set [15] is Fruit. The data set is described as follows: Drug degradation in Solanum lycopersicum (tomato) plant fruits at 300 g/L treated under green house condition measured after 15 days relative to initial level. It counts as ADME. The settings on record: 360 h.
Data set [16] has as its system Fruit. The data set is described as follows: Drug degradation in Solanum lycopersicum (tomato) plant fruits at 300 g/L treated under green house condition measured after 22 days relative to initial level. It counts as ADME. The settings on record: 528 h.
Data set [17] concerns Fruit. The data set is described as follows: Drug degradation in Solanum lycopersicum (tomato) plant fruits at 300 g/L treated under green house condition measured after 8 days relative to initial level. In kind it is ADME. The conditions noted are these: 192 h.
Data set [18] has as its system Fruit. The data set is described as follows: Drug recovery in Solanum lycopersicum (tomato) plant fruits at 0.14 ug/g of spiking level. It counts as ADME.
Data set [19] relates to Leaf. The experiment in a line: Residue remaining in Solanum lycopersicum (tomato) plant leaves at 300 g/L treated under green house condition measured after 7 days relative to initial level. The settings on record: 168 h.
Data set [20] has as its system Leaf. The data set is described as follows: Residue remaining in Solanum lycopersicum (tomato) plant leaves at 300 g/L treated under green house condition measured after 11 days relative to initial level. The conditions noted are these: 264 h.
Data set [21] relates to Leaf. The experiment in a line: Drug degradation in Solanum lycopersicum (tomato) plant leaves at 300 g/L treated under green house condition measured after 4 days relative to initial level. In kind it is ADME. The conditions noted are these: 96 h.

As for `Cc1cc(C)nc(Nc2ccccc2)n1` [PYRIMETHANIL], the half-life is 4 days in [1] and 5.7 days in data set [12]. Moreover, the Drug degradation in the data set on Leaf [2] is reported as 0%; with Leaf [5], 0.02%; in the data set with Leaf [6] it was 0%. Also, the Residue remaining is recorded as 79% with Fruit [3]; 11% in the data set on Leaf [7]; 0% with Leaf [13]; 41% in the data set on Leaf [14]; 5% in the data set with Fruit [15]; 0% with Fruit [16]. Also, the Residue remaining in the data set with Fruit [17] came out at 16%; in the data set on Leaf [19], 11%; with Leaf [20], 0%; in the data set with Leaf [21], 22%. Further, the Drug recovery in the data set with Leaf [4] amounted to 91%; in the data set with Fruit [18], 99%. For the same compound, the Drug remaining is listed as 15% with Fruit [8], 100% with Fruit [9], 25% in the data set with Leaf [10] and 100% in the data set with Leaf [11].
